pEC50, pIC50: −log10 of the molar value.

For one data set, the target named is Proto-oncogene tyrosine-protein kinase Src (Homo sapiens, UniProt P12931).
Sequence of Proto-oncogene tyrosine-protein kinase Src (P12931 2-536 limits assumed): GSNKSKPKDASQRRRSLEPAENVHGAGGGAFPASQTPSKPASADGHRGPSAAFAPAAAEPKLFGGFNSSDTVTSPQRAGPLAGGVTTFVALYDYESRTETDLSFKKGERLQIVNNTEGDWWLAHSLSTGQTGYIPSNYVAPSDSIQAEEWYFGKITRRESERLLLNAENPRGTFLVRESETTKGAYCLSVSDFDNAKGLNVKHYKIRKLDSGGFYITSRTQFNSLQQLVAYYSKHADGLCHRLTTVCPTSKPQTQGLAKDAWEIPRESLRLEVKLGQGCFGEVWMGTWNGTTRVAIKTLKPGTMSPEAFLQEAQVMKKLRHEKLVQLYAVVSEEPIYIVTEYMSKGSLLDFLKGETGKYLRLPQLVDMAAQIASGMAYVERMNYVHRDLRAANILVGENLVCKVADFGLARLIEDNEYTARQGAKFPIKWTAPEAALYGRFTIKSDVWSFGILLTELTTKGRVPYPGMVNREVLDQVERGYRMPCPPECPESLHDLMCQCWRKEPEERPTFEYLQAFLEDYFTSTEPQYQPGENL
Assay: not given
Conditions: not given
`CCOc1ccc2cc(-c3nn(C4CCOC4)c(N)c3C(N)=O)cnc2c1` (stereo unspecified) gave a pIC50 of under 5.00.
The same measure, in the same setting: next, `CCOc1ccc2cc(-c3nn(CC(C)(C)CO)c(N)c3C(N)=O)cnc2c1`: under 5.00.

Test system in a further data set: not listed separately
Kind of data set: Cytotoxicity against human CRL8155 cells assessed as growth inhibition after 48 to 72 hrs by Alamar blue assay. In kind it is toxicity, cell-based.
Conditions: not given
Take `CC(C)(C)n1nc(-c2cnc3cc(OC4CC4)ccc3c2)c(C(N)=O)c1N`: the pEC50 was under 4.52.
As for `CCOc1ccc2cc(-c3nn(C(C)C)c(N)c3C(N)=O)cnc2c1`, the pEC50 was under 4.52.
For the compound `COc1ccc2cc(-c3nn(C(C)(C)C)c(N)c3C(N)=O)cnc2c1`, the pEC50 was under 4.52.
Same read-out and setting: the value for `NC(=O)c1c(-c2ccc3ccccc3c2)nn(CC(F)(F)F)c1N` was under 4.52.
The same measure, in the same setting: next, `CC(C)n1nc(-c2ccc3nc(OC4CCC4)ccc3c2)c(C(N)=O)c1N`: under 4.52.
On the same count and under the same terms, next, `CCOc1ccc2cc(-c3nn(C(C)(C)C)c(N)c3C(N)=O)cnc2c1`: under 4.52.
`CC(C)(C)n1nc(-c2ccc3cc(O)ccc3c2)c(C(N)=O)c1N`: the pEC50 is under 4.52.
Still for that read-out and setting: the value for `CCOc1ccc2cc(-c3nn(C4CCCCC4)c(N)c3C(N)=O)ccc2n1` was under 4.52.
As for `CCOc1ccc2cc(-c3nn(C(C)(C)C)c(N)c3C(N)=O)ccc2c1`, the pEC50 is under 4.52.
On the same count and under the same terms, next, `CCOc1ccc2cc(-c3nn(CC(C)(C)CO)c(N)c3C(N)=O)cnc2c1`: under 4.52.

Test system in the next data set: not listed separately
Kind of data set: Cytotoxicity against human HepG2 cells assessed as growth inhibition after 48 to 72 hrs by Alamar blue assay.
Conditions: not given
In kind it is toxicity, cell-based.
With `CC(C)(C)n1nc(-c2cnc3cc(OC4CC4)ccc3c2)c(C(N)=O)c1N`, the pEC50 is under 4.52.
Still for that read-out and setting: next, `CCOc1ccc2cc(-c3nn(C(C)C)c(N)c3C(N)=O)cnc2c1`: under 4.52; `COc1ccc2cc(-c3nn(C(C)(C)C)c(N)c3C(N)=O)cnc2c1`: under 4.52.
The same measure, in the same setting: the value for `NC(=O)c1c(-c2ccc3ccccc3c2)nn(CC(F)(F)F)c1N` was under 4.52.
Take `CC(C)n1nc(-c2ccc3nc(OC4CCC4)ccc3c2)c(C(N)=O)c1N`: the pEC50 was under 4.52.
Same read-out and setting: the value for `CCOc1ccc2cc(-c3nn(C(C)(C)C)c(N)c3C(N)=O)cnc2c1` was under 4.52; that for `CC(C)(C)n1nc(-c2ccc3cc(O)ccc3c2)c(C(N)=O)c1N` was under 4.52.
With `CCOc1ccc2cc(-c3nn(C4CCCCC4)c(N)c3C(N)=O)ccc2n1`, the pEC50 is under 4.52.
On the same count and under the same terms, the value for `CCOc1ccc2cc(-c3nn(C(C)(C)C)c(N)c3C(N)=O)ccc2c1` was under 4.52.
On the same count and under the same terms, the value for `CCOc1ccc2cc(-c3nn(CC(C)(C)CO)c(N)c3C(N)=O)cnc2c1` was under 4.52.

Test system in the next data set: not listed separately
Kind of data set: Inhibition of recombinant Plasmodium falciparum CDPK4 S147M mutant using Syntide 2 as substrate assessed as decrease in depletion of ATP by Kinase glo luciferase assay.
Conditions: not given
Regarding `CC(C)(C)n1nc(-c2cnc3cc(OC4CC4)ccc3c2)c(C(N)=O)c1N`, the pIC50 was under 5.70.
Same read-out and setting: next, `CCOc1ccc2cc(-c3nn(C(C)C)c(N)c3C(N)=O)cnc2c1`: under 5.70; `COc1ccc2cc(-c3nn(C(C)(C)C)c(N)c3C(N)=O)cnc2c1`: under 5.70.
On the same count and under the same terms, next, `NC(=O)c1c(-c2ccc3ccccc3c2)nn(CC(F)(F)F)c1N`: under 5.70.
Still for that read-out and setting: next, `CC(C)n1nc(-c2ccc3nc(OC4CCC4)ccc3c2)c(C(N)=O)c1N`: under 5.70; `CCOc1ccc2cc(-c3nn(C(C)(C)C)c(N)c3C(N)=O)cnc2c1`: under 5.70; `CC(C)(C)n1nc(-c2ccc3cc(O)ccc3c2)c(C(N)=O)c1N`: under 5.70.
On to `CCOc1ccc2cc(-c3nn(C4CCCCC4)c(N)c3C(N)=O)ccc2n1`, for which the pIC50 was under 5.70.
The same measure, in the same setting: next, `CCOc1ccc2cc(-c3nn(C(C)(C)C)c(N)c3C(N)=O)ccc2c1`: under 5.70.
On the same count and under the same terms, the value for `CCOc1ccc2cc(-c3nn(CC(C)(C)CO)c(N)c3C(N)=O)cnc2c1` was under 5.70.

In another data set the test system is Plasmodium falciparum. Description: Inhibition of male gametocytes exflagellation of Plasmodium falciparum at 1 uM relative to control.
Conditions: not given
The class given is functional.
`CCOc1ccc2cc(-c3nn(C(C)C)c(N)c3C(N)=O)cnc2c1` came in with an inhibition at 1 µM of 87%.
On the same count and under the same terms, the value for `COc1ccc2cc(-c3nn(C(C)(C)C)c(N)c3C(N)=O)cnc2c1` was 87%.
Same read-out and setting: the value for `NC(=O)c1c(-c2ccc3ccccc3c2)nn(CC(F)(F)F)c1N` was 87%; that for `CC(C)n1nc(-c2ccc3nc(OC4CCC4)ccc3c2)c(C(N)=O)c1N` was 87%; that for `CC(C)(C)n1nc(-c2ccc3cc(O)ccc3c2)c(C(N)=O)c1N` was 87%.
The same measure, in the same setting: next, `CCOc1ccc2cc(-c3nn(C4CCCCC4)c(N)c3C(N)=O)ccc2n1`: 87%; `CCOc1ccc2cc(-c3nn(C(C)(C)C)c(N)c3C(N)=O)ccc2c1`: 87%.
For the compound `CCOc1ccc2cc(-c3nn(CC(C)(C)CO)c(N)c3C(N)=O)cnc2c1`, the inhibition at 1 µM turned out to be 87%.

Another data set deals with T1, Calmodulin-domain protein kinase 1 (Toxoplasma gondii, UniProt Q9BJF5).
T1 sequence (Q9BJF5 whole entry): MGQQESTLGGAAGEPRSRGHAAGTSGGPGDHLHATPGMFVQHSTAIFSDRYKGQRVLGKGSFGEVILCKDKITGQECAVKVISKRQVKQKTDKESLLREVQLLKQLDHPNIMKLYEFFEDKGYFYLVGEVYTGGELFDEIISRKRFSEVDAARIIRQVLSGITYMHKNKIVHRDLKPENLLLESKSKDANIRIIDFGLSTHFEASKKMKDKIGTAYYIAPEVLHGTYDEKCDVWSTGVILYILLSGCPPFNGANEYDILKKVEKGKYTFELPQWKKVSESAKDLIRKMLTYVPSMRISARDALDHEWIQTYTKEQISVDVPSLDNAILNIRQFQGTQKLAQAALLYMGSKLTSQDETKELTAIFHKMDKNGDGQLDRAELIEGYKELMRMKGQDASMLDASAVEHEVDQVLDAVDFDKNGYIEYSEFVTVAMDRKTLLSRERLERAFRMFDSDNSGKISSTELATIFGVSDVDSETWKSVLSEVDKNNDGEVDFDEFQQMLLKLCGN
Assay: not given
Conditions: not given
Compound `CC(C)(C)n1nc(-c2ccc3nc(OC4CC4)ccc3c2)c(C(N)=O)c1N` had a pIC50 of 8.30.
Still for that read-out and setting: next, `CCOc1ccc2cc(-c3nn(C4CCOC4)c(N)c3C(N)=O)cnc2c1` (stereo unspecified): 7.92; `CCOc1ccc2cc(-c3nn(C(C)C)c(N)c3C(N)=O)ccc2n1`: 8.15.
On the same count and under the same terms, next, `CC(C)n1nc(-c2ccc3nc(OC4CCC4)ccc3c2)c(C(N)=O)c1N`: 8.10; `CCOc1ccc2cc(-c3nn(C4CCCCC4)c(N)c3C(N)=O)ccc2n1`: 8.22.
Consider `CCOc1ccc2cc(-c3nn(C(C)C(C)(C)CO)c(N)c3C(N)=O)cnc2c1` (stereo unspecified), for which the pIC50 was 7.62.
Still for that read-out and setting: the value for `CCOc1ccc2cc(-c3nn(C(C)C4CC4)c(N)c3C(N)=O)cnc2c1` (stereo unspecified) was 7.85; that for `CCOc1ccc2cc(-c3nn(C(C)C(C)C)c(N)c3C(N)=O)cnc2c1` (stereo unspecified) was 7.74.

The next data set has as its system Plasmodium falciparum. Description: microbe, parasite or virus in culture. The note with it: read-out: INH.
In the case of `CC(C)(C)n1nc(-c2ccc3cc(O)ccc3c2)c(C(N)=O)c1N`, the inhibition at 0.1 µM was found to be 64%.
On the same count and under the same terms, the value for `CCOc1ccc2cc(-c3nn(C4CCCCC4)c(N)c3C(N)=O)ccc2n1` was 39%; that for `CCOc1ccc2cc(-c3nn(CC(C)(C)CO)c(N)c3C(N)=O)cnc2c1` was 81%.

Values taken from ChEMBL document CHEMBL3864161, “5-Aminopyrazole-4-carboxamide analogues are selective inhibitors of Plasmodium falciparum microgametocyte exflagellation and potential malaria transmission blocking agents” (Bioorg Med Chem Lett, 2016).
